Experimental findings from US20040106651A1, “3,4-diaminopyriding tartrate and phosphate, pharmaceutical compositions and uses thereof” (priority 2001, published 2004) are described below.

The data set in a line: Stability study in hard gelatin capsules under ICH storage conditions. It counts as physicochemical. The note with it: for Stability formulated in hard gelatin capsules: conclusion from tables I and II; for Stability under the storage conditions in accordance with the international recommendations: general statement. The protocol: 3,4-DAP tartrate, as prepared above in example 1, was introduced into hard gelatin capsules made of gelatin of size No. 3 in a proportion of 10 mg (expressed as weight of 3,4-DAP in the free base form) per hard gelatin capsule (Hard gelatin capsules A).
In the same way and by way of comparison, hard gelatin capsules made of gelatin of size No. 3 including 10 mg of 3,4-DAP per hard gelatin capsule were prepared (Hard gelatin capsules B).
A stability study on 3,4-DAP tartrate and on 3,4-DAP, introduced respectively into hard gelatin capsules A and B, was subsequently carried out.
This study was carried out under the conditions recommended by the international recommendations for the study of the stability of active principles (International Conference on Harmonization, Draft Guideline on Stability Testing of New Drug and Product, November 1999, CPMP/ICH/2736/99).

Take `Nc1ccncc1N` [3,4-DAP, 3,4-diaminopyridine, reference compound]: the “Stability formulated in hard gelatin capsules” value is reported as “unstable” and the “Stability under the storage conditions in accordance with the international recommendations” value (from here on “Stability under the storage conditions”) is reported as “unstable”.

As for `Nc1ccncc1N.O=P(O)(O)O` [3,4-DAP phosphate, 3,4-diaminopyridine Phosphate], the “Stability under the storage conditions” value was “very high stability”.

On to `Nc1ccncc1N.O=C(O)C(O)C(O)C(=O)O` (centres unmarked) [3,4-DAP tartrate, 3,4-diaminopyridine Tartrate], for which the “Stability formulated in hard gelatin capsules” value is recorded as “great stability” and the “Stability under the storage conditions” value is given as “very high stability”.
